Each structure is given as a SMILES string.

The text below walks through data of ChEMBL document CHEMBL1130814, “Synthesis of 5-thiomannose-containing oligomannoside mimics: binding abilities to concanavalin A” (Bioorg Med Chem Lett, 1998).

This test is described as follows: Dissociation constant for binding affinity towards Concanavalin A determined by fluorescence anisotropy inhibition assay. In general terms: Polarisation of emitted light reports the rotation of a fluorescent probe.
Take `CO[C@H]1O[C@@H](CO)[C@@H](O)[C@H](O[C@H]2O[C@@H](CO)[C@@H](O)[C@H](O)[C@H]2O)[C@H]1O`: binding was characterised by a dissociation constant (Kd) of 49 µM.

`CO[C@H]1O[C@@H](CO[C@H]2O[C@@H](CO)[C@@H](O)[C@H](O)[C@H]2O)[C@@H](O)[C@H](O[C@H]2O[C@@H](CO)[C@@H](O)[C@H](O)[C@H]2O)[C@H]1O`: binding was characterised by a dissociation constant (Kd) of 3 µM.

Consider `CO[C@H]1O[C@@H](CO)[C@@H](O)[C@H](O[C@H]2S[C@@H](CO)[C@@H](O)[C@H](O)[C@H]2O)[C@H]1O`, for which binding was characterised by a dissociation constant (Kd) of 1720 µM. Then `CO[C@H]1O[C@@H](CO[C@H]2S[C@@H](CO)[C@@H](O)[C@H](O)[C@H]2O)[C@@H](O)[C@H](O[C@H]2O[C@@H](CO)[C@@H](O)[C@H](O)[C@H]2O)[C@H]1O`, with 18 µM; and `CO[C@H]1O[C@@H](CO[C@H]2S[C@@H](CO)[C@@H](O)[C@H](O)[C@H]2O)[C@@H](O)[C@H](O)[C@H]1O`, with 1280 µM. In the case of `CO[C@H]1O[C@@H](CO[C@H]2O[C@@H](CO)[C@@H](O)[C@H](O)[C@H]2O)[C@@H](O)[C@H](O[C@H]2S[C@@H](CO)[C@@H](O)[C@H](O)[C@H]2O)[C@H]1O` it was 7 µM. Then `CO[C@H]1O[C@@H](CO[C@H]2S[C@@H](CO)[C@@H](O)[C@H](O)[C@H]2O)[C@@H](O)[C@H](O[C@H]2S[C@@H](CO)[C@@H](O)[C@H](O)[C@H]2O)[C@H]1O`, with 376 µM; and `CO[C@H]1O[C@@H](CO[C@H]2O[C@@H](CO)[C@@H](O)[C@H](O)[C@H]2O)[C@@H](O)[C@H](O)[C@H]1O`, with 150 µM.
